Measurements as given in US20040033940A1, “Cyclic hepta-peptide derivative from colonial ascidians, lissoclinum SP” (Pharma Mar, S.A., priority 2002, published 2004).
In brackets after ≈: the same amount, converted by molar mass. Starred links: 1 amine or outer side, 2 acyl side, 3 side chain; linkers in the order of their positions; H or OH if unused. Non-standard residues stand in square brackets, D forms with d. Residues, ends and D or L forms follow the SMILES beside them. *: point of attachment. X1 = O=C([C@@H]1CSC([C@H](Cc2ccccc2)N[*:1])=N1)[*:2]; Allyl(1,1-Me2) = C=CC(C)(C)*

Assays:
[1] = test system: P-388 (suspension culture of a lymphoid neoplasm from DBA-2 mouse)
Protocol: (§1) Cells were maintained in logarithmic phase of growth in Eagle's Minimum Essential Medium, with Earle's Balanced Salts, with 2.0 mM L-glutamine, with non-essential amino acids, without sodium bicarbonate (EMEM/neaa); supplemented with 10% Fetal Calf Serum (FCS), 10^−2 M sodium bicarbonate and 0.1 g/l penicillin-G+streptomycin sulfate.
A simple screening procedure was carried out to determine and compare the antitumor activity of this compound, using an adapted form of the method described by Bergeron et al. [Biochem. Bioph. […] The antitumor cells employed were P-388 (suspension culture of a lymphoid neoplasm from DBA-2 mouse), A-549 (monolayer culture of a human lung carcinoma), HT-29 (monolayer culture of a human colon carcinoma) and MEL-28 (monolayer culture of a human melanoma).
P-388 cells were seeded into 16 mm wells at 1×10^4 cells per well in 1 ml aliquots of MEM 5FCS containing the indicated concentration of drug. A separate set of cultures without drug was seeded as control growth to ensure that cells remained in exponential phase of growth. All determinations were carried out in duplicate. After three days of incubation at 37° C., 10% CO2 in a 98% humid atmosphere, an approximate IC50 was determined by comparing the growth in wells with drug to the growth in wells control.

[2] = test system: A-549 (monolayer culture of a human lung carcinoma)
Protocol: as §1
(§2) The antitumor cells employed were P-388 (suspension culture of a lymphoid neoplasm from DBA-2 mouse), A-549 (monolayer culture of a human lung carcinoma), HT-29 (monolayer culture of a human colon carcinoma) and MEL-28 (monolayer culture of a human melanoma).
(§3) A-549, HT-29 and MEL-28 cells were seeded into 16 mm wells at 2×10^4 cells per well in 1 ml aliquots of MEM 10FCS containing the indicated concentration of drug. A separate set of cultures without drug was seeded as control growth to ensure that cells remained in exponential phase of growth. All determinations were carried in duplicate. After three days of incubation at 37° C., 10% CO2 in a 98% humid atmosphere, the wells were stained with 0.1% Crystal Violet. An approximate IC50 was determined by comparing the growth in wells with drug to the growth in wells control.

[3] = test system: HT-29 (monolayer culture of a human colon carcinoma)
Protocol: as §1, §2, §3

[4] = test system: MEL-28 (monolayer culture of a human melanoma)
Protocol: as §1, §2, §3

IC50 P-388 [1]: 0.5 µg/mL (≈ 0.597 µM) | IC50 A-549 [2]: 0.5 µg/mL (≈ 0.597 µM) | IC50 HT-29 [3]: 0.5 µg/mL (≈ 0.597 µM) | IC50 MEL-28 [4]: 1.0 µg/mL (≈ 1.19 µM)
Structure (SMILES): C=CC(C)(C)OC[C@@H]1NC(=O)[C@H]([C@@H](C)OC(C)(C)C=C)NC(=O)[C@@H]2CSC(=N2)[C@H](Cc2ccccc2)NC(=O)[C@@H]2CCCN2C(=O)[C@H](C)NC(=O)[C@H]([C@@H](C)CC)NC1=O [trunkamide A] (cyclo(AP[X1]T(Allyl(1,1-Me2))S(Allyl(1,1-Me2))I))
